pIC50: −log10 of the molar value. Calls of active or inactive are those of the source. The rule behind the calls is not given here.

A word on the pIC50: it is −log10 of the IC50, conventionally taken in molar units. For orientation: IC50 means the concentration that inhibits the measured activity by half.

For the test, the target named is Induced myeloid leukemia cell differentiation protein Mcl-1 (Homo sapiens) (UniProt Q07820). The test is described as follows: blockers of Bid binding to Mcl-1 – biochemical, TR-FRET, dose response (AID 1418). The conditions noted are these: Mcl-1/Bid peptide binding, TR-FRET (europium/Dy647), 2 hr. For orientation: TR-FRET usually uses a lanthanide donor and a delayed reading to cut background.
Induced myeloid leukemia cell differentiation protein Mcl-1 (Homo sapiens), sequence (Q07820 whole entry, looked up): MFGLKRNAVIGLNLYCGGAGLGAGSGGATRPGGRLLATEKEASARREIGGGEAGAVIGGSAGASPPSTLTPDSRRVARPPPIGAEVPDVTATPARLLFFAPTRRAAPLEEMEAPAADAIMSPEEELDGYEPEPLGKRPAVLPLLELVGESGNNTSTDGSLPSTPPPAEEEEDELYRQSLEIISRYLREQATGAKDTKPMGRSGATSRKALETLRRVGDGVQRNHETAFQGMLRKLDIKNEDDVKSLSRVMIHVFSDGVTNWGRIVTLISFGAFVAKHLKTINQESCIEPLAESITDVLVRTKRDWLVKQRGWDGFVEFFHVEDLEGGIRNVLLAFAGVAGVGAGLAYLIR
On to `CC(=O)OCCn1c2nc(=O)[nH]c(=O)c-2nc2cc(C)c(C)cc21`, for which the negative-log IC50 (pIC50) was 4.73. With `OCC1CCCN(c2nc(CN3CCCCC3)nc3scc(-c4ccccc4)c23)C1` (stereo unspecified), the IC50 is > 54 µM (inactive).

With `CCOC(=O)c1ccc(NS(=O)(=O)N2CCCCCC2)cc1`, the IC50 was > 54 µM (inactive). The same measure, in the same setting: for `COc1ccc(N/C(=C(/C(Cl)=C(Cl)Cl)[N+](=O)[O-])n2nnc3ccccc32)cc1OC` the value was > 54 µM (inactive). In the case of `Cc1ccc([N+](=O)[O-])cc1-c1ccc(/C=C(\C#N)c2[nH]nc(N)c2C#N)o1`, the pIC50 is 5.43.

Turning to `COc1ccccc1OCCOc1ccc(/C=C2/C(=N)N3OC(C)=CC3=NC2=O)cc1OC`, the pIC50 was 6.25. As for `O=C(CSc1nnc2scc(-c3ccccc3)n12)N1CCN(Cc2ccccc2)CC1`, the IC50 is > 54 µM (inactive). On to `O=C(O)CCCN1C(=O)/C(=C\c2ccc(-c3nc4ccccc4s3)o2)SC1=S`, for which the pIC50 was 6.28. In the case of `CCc1ccc(NC(=S)NC2CC3CCC(C2)N3Cc2ccco2)cc1` (stereo unspecified), the IC50 is > 54 µM (inactive). Regarding `CCOC(=O)C1CCCN(c2c(N3CCN(c4cccc(Cl)c4)CC3)c(=O)c2=O)C1` (stereo unspecified), the IC50 was > 54 µM (inactive). Still for that read-out and setting: for `CSc1nc(N(C)CCO)c2sc3nc(-c4ccco4)c4c(c3c2n1)CCC4` the value was > 54 µM (inactive); for `COc1ccccc1NC(=O)CSc1nc2ccccc2cc1Cc1ccccc1`, > 54 µM (inactive).

Take `COc1ccc2nc(-n3c(O)c(C4=c5ccccc5=NC4=O)[nH]c3=S)sc2c1`: the pIC50 is 5.86.

In the case of `NC(=S)n1[nH]c(-c2ccc([N+](=O)[O-])cc2)c(N=Nc2ccc(Cl)cc2)c1=O`, the negative logarithm of the IC50 (pIC50) was 6.25. Turning to `CC(=O)c1cccc(NC(=O)C2CCN(C(=O)c3ccc([N+](=O)[O-])cc3)CC2)c1`, the IC50 was > 54 µM (inactive). As to `O=C(NCc1nnc(SCC(=O)N2CCOCC2)o1)c1c(F)cccc1Cl`, the IC50 is > 54 µM (inactive). Consider `O=C(CN1C(=O)/C(=C2\SC(=S)N(C3CCS(=O)(=O)C3)C2=O)c2ccccc21)Nc1ccc(F)cc1` (stereo unspecified), for which the pIC50 was 6.14.

As for `Cc1ccccc1C(=O)NC(=S)Nc1sc2c(c1C#N)CCCC2`, the IC50 is > 54 µM (inactive). Turning to `Cc1ccc(C)c(OCC(=O)Nc2ccc3c(c2)OCO3)c1C`, the IC50 was > 54 µM (inactive). Take `COCCn1c(SCC(=O)NC(=O)NCc2ccccc2)nc2ccccc21`: the IC50 is > 54 µM (inactive).

Take `CC(C)(C)c1c(Cl)c(O)c(-c2ccccc2)c(=O)n1-c1ccccc1`: the pIC50 was 6.17. As for `Cc1nnc(Sc2c(N)n(C)c(=O)[nH]c2=O)s1`, the IC50 is > 54 µM (inactive). Still for that read-out and setting: for `O=C(c1ccccc1)N1CCN(Cc2ccccc2Br)CC1` the value was > 54 µM (inactive).

Regarding `O=C(CN1C(=O)NC2(CCc3ccccc3C2)C1=O)Nc1ccc(F)cc1` (stereo unspecified), the IC50 was > 54 µM (inactive).

For `Cn1c(CSc2nc3ccccc3s2)nnc1SCC(=O)NCc1cccnc1`, the IC50 was > 54 µM (inactive). In the case of `COc1cccc(C(=O)Nc2ccc3nc(N4CCN(c5ncccn5)CC4)cc(C)c3c2)c1OC`, the pIC50 was 6.28. As to `COC(=O)c1ccc(NC(=O)c2ccccc2N(C)S(=O)(=O)c2ccccc2)cc1`, the IC50 is > 54 µM (inactive). Still for that read-out and setting: for `O=C(CN(C(=O)CNC(=O)c1ccco1)c1ccc2c(c1)OCO2)NC1CCCCC1` the value was > 54 µM (inactive); for `Cc1ccc(C(=O)CN(C(=O)c2ccc(Cl)c(Cl)c2)N2C(=O)C3C4C=CC(C4)C3C2=O)cc1` (stereo unspecified), > 54 µM (inactive). As for `Cc1ccc2nc(-c3ccc(SCC(=O)Nc4nnc(C)s4)nc3)[nH]c2c1`, the pIC50 is 5.07. On the same count and under the same terms, next, `O=c1c2ccccc2sc2nc(C3CCCCC3)n(Cc3ccco3)c(=O)c12`: 4.72; `CC(C)(C)c1nc2ccccc2c2nnc(SCC(=O)Nc3nc4ccccc4s3)n12`: 5.69. `CCc1c(C(=O)Nc2cc(C)ccc2OC)[nH]c(C)c1C(C)=O`: the IC50 is > 54 µM (inactive). Still for that read-out and setting: next, `Cc1nc(SCC(=O)Nc2cc(Cl)ccc2[N+](=O)[O-])nc(C)c1C`: > 54 µM (inactive); `Cc1cccc2cc(/C=N/NC(=O)CN3CCOCC3)c(Cl)nc12`: > 54 µM (inactive). Consider `Oc1c(Cl)cc(Cl)cc1Sc1cc(Cl)cc(Cl)c1O`, for which the pIC50 is 5.78. Take `O=C(N/N=C/c1ccco1)c1ccc(N2CCCC2=O)cc1`: the IC50 was > 54 µM (inactive). The same measure, in the same setting: for `COc1ccc(OC)c(NC(=S)N(CCc2c(C)[nH]c3ccc(C)cc23)Cc2cccs2)c1` the value was > 54 µM (inactive).

Turning to `O=C(O)CCN1C(=O)/C(=C\c2ccc(-c3nc4ccccc4s3)o2)SC1=S`, the pIC50 was 6.24. Turning to `O=C1NC(CCc2ccccc2)C(=O)N1Cc1ccccc1Cl` (stereo unspecified), the IC50 was > 54 µM (inactive).

As to `C#CCOCCOCCOCCNc1nc(N2CCN(C(=O)[C@H](Cc3ccc(O)cc3)n3cc([C@@H](N)C(C)CC)nn3)CC2)nc(N2CCN(C(=O)[C@H](Cc3cc4ccccc4[nH]3)n3cc([C@@H](N)C(C)CC)nn3)CC2)n1` (stereo partly specified), the pIC50 was 6.09.

Consider `CCOc1ccc(NC(=O)CC2C(=O)N(c3ccc(OC)cc3)C(=S)N2Cc2ccccn2)cc1` (stereo unspecified), for which the IC50 was > 54 µM (inactive). Take `N#C/C(=C\c1ccc(N2CCCC2)c([N+](=O)[O-])c1)c1nc2ccccc2[nH]1`: the pIC50 is 4.67. As to `CCN1C(=O)/C(=c2\s/c(=C3\Sc4ccccc4N3C)c(=O)n2C)N(C)C1=S`, the IC50 result is “inactive”. For the molecule `C/C(=N\Nc1cccc(C(=O)O)c1)c1ccc2c(c1)Nc1ccccc1S2`, the pIC50 was 6.12. As for `CCOc1ccc(-n2c(-c3ccoc3)nc3ccccc3c2=O)cc1`, the IC50 was > 54 µM (inactive). With `O=C(/C=C\Nc1ccc(S(=O)(=O)Nc2ncccn2)cc1)c1cccc2ccccc12`, the IC50 was > 54 µM (inactive). Still for that read-out and setting: next, `CCCN(CCC)C(C(=O)Nc1cccc(OC)c1)c1ccccc1` (stereo unspecified): > 54 µM (inactive).

In the case of `O=C(COc1ccc(/C=N/NC(=O)c2cc3ccccc3o2)cc1Br)Nc1ccccc1`, the pIC50 was 6.21. Still for that read-out and setting: next, `S=C(NNc1ccnc2cc(Cl)ccc12)Nc1ccc(Cl)cc1Cl`: 5.65. Take `FC(F)(F)c1cccc(N/N=C/c2ccccc2)c1`: the IC50 is > 54 µM (inactive).

`CN(C(=O)c1ccc(C#N)cc1)c1nnc(-c2cnccn2)s1`: the IC50 is > 54 µM (inactive). As for `CCOc1cc(N2CCOCC2)c(OCC)cc1NC(=O)CN1CCc2ccccc2C1`, the IC50 was > 54 µM (inactive).

In the case of `O=C1CN(C(=O)CNCc2ccccc2)c2ccccc2N1`, the IC50 was > 54 µM (inactive). For the molecule `COc1ccc2[nH]c3c(c2c1)CCn1c-3nc2sc(C(=O)Nc3ccccc3)c(C)c2c1=O`, the pIC50 was 5.72. In the case of `Fc1cc2nc(-c3ccncc3)[nH]c2cc1F`, the IC50 was > 54 µM (inactive). Same read-out and setting: next, `CCCN(CCC)CCNC(=O)C1CC(=O)N(c2ccc(OC)cc2)C1c1ccc(OC)cc1` (stereo unspecified): > 54 µM (inactive); `c1ccc2nc3ccccc3nc2c1`: > 54 µM (inactive); `N/C(CS(=O)(=O)c1ccc(F)cc1)=N\O`: > 54 µM (inactive). Same read-out and setting: for `CC(C)CN(CC(C)C)C(=S)NC1CCCCC1` the value was > 54 µM (inactive); for `CCOc1ccc(N2C(=O)c3cccnc3C2Nc2ccc(F)cc2)cc1` (stereo unspecified), > 54 µM (inactive). Still for that read-out and setting: for `Cn1c(SCC(=O)N=Nc2c(O)[nH]c3ccccc23)nc2ccccc21` the value was > 54 µM (inactive).

For the molecule `O=C(NCc1nc2ncc(Br)cc2[nH]1)c1ccccc1`, the IC50 is > 54 µM (inactive). Consider `O=C(Nc1ccc(S(=O)(=O)Nc2ncccn2)cc1)c1ccc2ncsc2c1`, for which the pIC50 was 6.07. For the molecule `CC(C)C(C(=O)O)N1C(=O)/C(=C/C=C/c2ccco2)SC1=S` (stereo unspecified), the pIC50 was 5.63.

With `Cc1nc(NC(=O)c2ccco2)sc1-c1csc(Nc2ccc(Cl)cc2Cl)n1`, the pIC50 is 6.11. Consider `C#CCOCCOCCOCCNc1nc(N2CCN(C(=O)[C@H](CCCCN)n3cc([C@@H](N)C(C)CC)nn3)CC2)nc(N2CCN(C(=O)[C@H](CCCCN)n3cc([C@@H](N)CO)nn3)CC2)n1` (stereo partly specified), for which the pIC50 was 6.20.

As to `Cc1ccccc1OCCNC(=O)CNC(=O)c1ccccc1O`, the IC50 is > 54 µM (inactive). The same measure, in the same setting: next, `O=C(Nc1ccc(F)cc1)N1CCCN(c2ccc(C(F)(F)F)cn2)CC1`: > 54 µM (inactive).

As to `Cc1ccc(-n2cccc2/C=C2\C(=N)N3N=C(c4ccco4)SC3=NC2=O)cc1`, the negative logarithm of the IC50 (pIC50) was 5.46.

As for `O=C(N[C@@H](Cc1ccccc1)C(=O)O)c1ccncc1`, the IC50 was > 54 µM (inactive). Same read-out and setting: for `Cc1ccc(-c2nc(N3CCOCC3)sc2C(=O)N2CCCCC2)cc1` the value was > 54 µM (inactive); for `Cc1ccc(C(C)C)cc1NC(=O)Nc1ccc([N+](=O)[O-])cc1`, > 54 µM (inactive).

In the case of `O=C(O)c1ccc2ncsc2c1`, the pIC50 was 6.28. With `COc1cc(C(=O)Nc2ccc3c(c2)C(=O)c2ccccc2C3=O)cc(OC)c1OC`, the pIC50 was 5.05. With `COc1ccccc1NC(=O)CSc1nnnn1-c1ccc2c(c1)OCO2`, the IC50 was > 54 µM (inactive).

With `CC1=C(SCCC#N)S/C(=C2\SC(C)=C(SCCC#N)S2)S1`, the negative-log IC50 (pIC50) was 5.55. As for `Nc1cccc(C(=O)OCC(=O)Nc2cccc3c2C(=O)c2ccccc2C3=O)c1`, the pIC50 is 5.62. Same read-out and setting: next, `COc1cc(/C=C(/C#N)c2nc3ccccc3c(=O)[nH]2)ccc1O`: 5.94; `CCOc1cc(/C=C2\C(=O)N(c3nc(-c4ccc(Br)cc4)cs3)N=C2c2ccccc2)ccc1O`: 6.12. Still for that read-out and setting: next, `COc1ccc(NC(=O)Cn2nnc(-c3ccccc3NC(=O)c3ccco3)n2)cc1`: 5.21. Turning to `O=C(Nc1nnc(-c2ccco2)s1)C1CC1`, the IC50 is > 54 µM (inactive).

`Cc1ccc(C(=O)NNC(=O)CSc2nnc3c(n2)[nH]c2ccc(F)cc23)cc1`: the IC50 is > 54 µM (inactive). Turning to `O=[N+]([O-])c1ccc(-c2nc3ccc([N+](=O)[O-])cc3[nH]2)cc1`, the negative logarithm of the IC50 (pIC50) is 4.89. Turning to `Cc1ccc(S(=O)(=O)N/N=C/c2cnn(C)c2C)cc1`, the IC50 was > 54 µM (inactive). Turning to `c1coc(-c2nc3c4c5c(sc4ncn3n2)CCCC5)c1`, the IC50 was > 54 µM (inactive).

The record behind these values is PubChem BioAssay AID1418 (Emory University Molecular Libraries Screening Center, 2008).
